Test results taken from ChEMBL document CHEMBL4699553, “Synthesis and biological evaluation of chalcone derivatives as neuroprotective agents against glutamate-induced HT22 mouse hippocampal neuronal cell death” (Bioorg Med Chem Lett, 2020).
The source made the active and inactive calls. The calls are words filed in the database; no cut-off is given here.

Columns and labels:
[1] = test system: HT-22; assay: Neuroprotective activity against glutamate-induced cell death in mouse HT22 cells assessed as increase in cell viability at 0.15 to 38.46 uM incubated for 12 hrs by calcein-AM dye and propidium iodide staining based analysis; format: functional; conditions: dose microM 0.15-38.46, time 12.0 hrs
[2] = test system: HT-22; assay: Induction of apoptosis in mouse HT22 cells assessed as late apoptotic cells at 12.8 uM by Annexin-V FITC and propidium iodide staining based flow cytometric analysis (reference value: 7.05 %); format: cell-based; conditions: ht-22, 12.8 µM
[3] = test system: HT-22; assay: Neuroprotection against glutamate-induced apoptosis in mouse HT22 cells assessed as increase in bcl2 protein level at 1.4 to 12.8 uM by Western blot analysis; format: functional, cell-based; conditions: dose microM 1.4-12.8
[4] = Antioxidant activity assessed as DPPH radical scavenging activity; format: functional
[5] = biological target: T1, Nuclear factor erythroid 2-related factor 2 (Homo sapiens) (UniProt Q16236); assay: Activation of Nrf2 in human HepG2 cells co-transfected with ARE luciferase gene assessed as increase in ARE-driven luciferase activity by luciferase reporter gene assay; format: cell-based; conditions: filed as activator
T1 sequence (whole entry): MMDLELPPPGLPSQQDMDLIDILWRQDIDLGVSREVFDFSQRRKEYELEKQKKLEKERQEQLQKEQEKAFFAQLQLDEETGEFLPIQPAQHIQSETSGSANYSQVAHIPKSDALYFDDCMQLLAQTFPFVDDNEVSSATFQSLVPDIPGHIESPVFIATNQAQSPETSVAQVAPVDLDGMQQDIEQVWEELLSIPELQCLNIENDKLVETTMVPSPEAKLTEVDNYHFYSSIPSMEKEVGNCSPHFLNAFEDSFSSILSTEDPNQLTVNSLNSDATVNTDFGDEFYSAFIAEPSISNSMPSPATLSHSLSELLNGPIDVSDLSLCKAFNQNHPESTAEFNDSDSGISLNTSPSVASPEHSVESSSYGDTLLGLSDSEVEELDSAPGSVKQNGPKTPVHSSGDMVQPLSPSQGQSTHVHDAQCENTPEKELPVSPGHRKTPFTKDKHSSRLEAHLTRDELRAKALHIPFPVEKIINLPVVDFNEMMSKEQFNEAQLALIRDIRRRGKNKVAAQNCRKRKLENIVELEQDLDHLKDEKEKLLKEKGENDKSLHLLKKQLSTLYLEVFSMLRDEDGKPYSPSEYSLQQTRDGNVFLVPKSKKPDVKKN

[6] = test system: HT-22; assay: Neuroprotection against glutamate-induced apoptosis in mouse HT22 cells assessed as decrease in translocation of AIF to nucleus at 12.8 uM by immunostaining analysis; format: functional, cell-based
[7] = test system: HT-22; assay: Neuroprotection against glutamate-induced apoptosis in mouse HT22 cells assessed as reduction in bax protein level at 1.4 to 12.8 uM by Western blot analysis; format: functional, cell-based; conditions: dose microM 1.4-12.8
[8] = test system: HT-22; assay: Inhibition of glutamate-induced JNK activation in mouse HT22 cells assessed as reduction in phosphorylated JNK protein level by Western blot analysis; format: cell-based; conditions: dose microM 1.4-12.8
[9] = Induction of apoptosis in mouse HT22 cells assessed as viable cells at 12.8 uM by Annexin-V FITC and propidium iodide staining based flow cytometric analysis (reference value: 87.05 %); format: cell-based, HT-22; conditions: read-out: Activity
[10] = test system: Caenorhabditis elegans; assay: Neuroprotective activity against 6-OHDA induced neuronal dysfunction in Caenorhabditis elegans N2 assessed as increase in number of body bending at 100 uM incubated for 1 hr and measured for 20 sec; format: functional, organism-based
[11] = test system: HT-22; assay: Neuroprotective activity against glutamate-induced oxidative stress in mouse HT22 cells assessed as reduction in intracellular ROS accumulation at 12.8 uM by DCF-DA staining based fluorescence assay; format: functional, cell-based
[12] = test system: Hippocampus; assay: Inhibition of erastin induced ferroptotic-cell death in rat hippocampal culture by propidium iodide uptake based fluorescence analysis; format: functional, tissue-based
[13] = test system: HT-22; assay: Neuroprotective activity against glutamate-induced cell death in mouse HT22 cells assessed as cell viability at 12.8 uM incubated for 12 hrs by calcein AM dye and propidium iodide staining based analysis (reference value: 50%); format: functional; conditions: read-out: Activity
[14] = test system: HT-22; assay: Neuroprotection against glutamate-induced apoptosis in mouse HT22 cells assessed as decrease in translocation of AIF to nucleus at 12.8 uM by Western blot analysis; format: functional, cell-based
[15] = test system: HT-22; assay: Neuroprotective activity against glutamate-induced cell death in mouse HT22 cells assessed as live cells at 12.8 uM by Annexin-V FITC and propidium iodide staining based flow cytometric analysis (reference value: 15.03 %); format: functional
[16] = test system: HT-22; assay: Neuroprotective activity against glutamate-induced cell death in mouse HT22 cells assessed as late apoptotic cells at 12.8 uM by Annexin-V FITC and propidium iodide staining based flow cytometric analysis (reference value: 4.62 %); format: functional
[17] = test system: HT-22; assay: Inhibition of glutamate-induced ERK activation in mouse HT22 cells assessed as reduction in phosphorylated ERK protein level by Western blot analysis; format: cell-based; conditions: dose microM 1.4-12.8
[18] = test system: HT-22; assay: Induction of apoptosis in mouse HT22 cells assessed as early apoptotic cells at 12.8 uM by Annexin-V FITC and propidium iodide staining based flow cytometric analysis (reference value: 3.37 %); format: cell-based; conditions: ht-22, 12.8 µM
[19] = test system: HT-22; assay: Induction of apoptosis in mouse HT22 cells assessed as necrotic cells at 12.8 uM by Annexin-V FITC and propidium iodide staining based flow cytometric analysis (reference value: 2.53 %); format: cell-based; conditions: ht-22, 12.8 µM
[20] = biological target: MAP kinase p38 (Mus musculus) (UniProt P47811+O08911+Q9WUI1+Q9Z1B7); assay: Inhibition of glutamate-induced p38 MAPK activation in mouse HT22 cells assessed as reduction in phosphorylated p38 MAPK protein level by Western blot analysis; format: cell-based; conditions: HT-22, dose microM 1.4-12.8
[21] = test system: HT-22; assay: Neuroprotection against glutamate-induced Ca2+ homeostasis disruption in mouse HT22 cells assessed as reduction in intracellular Ca2+ uptake at 1.4 to 12.8 uM by Fluo3-AM staining based fluorescent microscopic method; format: functional, cell-based; conditions: dose microM 1.4-12.8
[22] = test system: HT-22; assay: Neuroprotective activity against glutamate-induced cell death in mouse HT22 cells assessed as necrotic cells at 12.8 uM by Annexin-V FITC and propidium iodide staining based flow cytometric analysis (reference value: 0.51 %); format: functional
[23] = test system: HT-22; assay: Neuroprotective activity against glutamate-induced cell death in mouse HT22 cells assessed as early apoptotic cells at 12.8 uM by Annexin-V FITC and propidium iodide staining based flow cytometric analysis (reference value: 79.84 %); format: functional

With `COc1ccc2c(c1)C(=O)/C(=C/c1cccc(O)c1)CC2` the Activity [1] was “inactive”.
In the case of `COc1cc(OC)c(/C=C2\CCc3ccc(OC)cc3C2=O)c(OC)c1`, the Activity [1] is reported as “Active”.
For `COc1cccc(/C=C2\CCc3ccc(OC)cc3C2=O)c1`, the Activity [1] was “Active”.
With `COc1ccc2c(c1)C(=O)/C(=C/c1ccc(O)cc1)CC2` the Activity [1] was “inactive”.
For `COc1ccc2c(c1)C(=O)/C(=C/c1ccc(N(C)C)cc1)CC2`, the Activity [1] was “Active”.
For `COc1ccc2c(c1)C(=O)/C(=C/c1cc(OC)c(Br)c(OC)c1)CC2`, the Activity [1] was “Active”.
In the case of `COc1ccc2c(c1)C(=O)/C(=C/c1cc(OC)c(OC)c(OC)c1)CC2`, the Activity [1] is reported as “Active”.
In the case of `COc1ccc2c(c1)C(=O)/C(=C/c1ccc(OC)c(OC)c1)CC2`, the Activity [1] is reported as “Active”.
In the case of `COc1ccc2c(c1)C(=O)/C(=C/c1c[nH]c3ccccc13)CC2`, the Activity [2] is reported as 8.72%, the Activity [3] is reported as “Active” and the Activity [4] is reported as “inactive”. The Activity [5] was “Active”, the Activity [6] was “Active” and the Activity [7] was “Active”. The inhibition [8] was “Dose-dependent effect”, the viability at 12.8 µM [9] was 88.2% and the Activity [10] was “Active”. For the same molecule, the Activity [11] was “Active”, the inhibition [12] was “inactive” and the viability at 12.8 µM [13] was over 80%. The Activity [14] was “Active”, the Activity [15] was 91.37% and the Activity [16] was 5.92%. The inhibition [17] was “Dose-dependent effect”, the Activity [18] was 0.95% and the Activity [19] was 2.08%. For the same molecule, the inhibition [20] was “Dose-dependent effect”, the Activity [21] was “Active” and the Activity [22] was 1.68%. The Activity [23] was 1.03%.
In the case of `COc1ccc2c(c1)C(=O)/C(=C/c1cc(OC)c(OC)cc1Br)CC2`, the Activity [1] is reported as “Active”.
